Columns and labels:
[1] = test system: Normal human fibroblasts (NHFs); experiment: surviving fraction of normal human fibroblasts; format: cell-based; conditions: 5 μM GC4419 24 h followed by 10 pmol/cell ascorbate 1 h; FIG. 9
Method: FIG. 9 is a graph showing the normalized surviving fraction of normal human fibroblasts (NHFs) treated with GC4419, ascorbate, and a combination of GC4419 and ascorbate. Normal human fibroblasts (NHFs) were plated and grown in culture (low FBS media) for 48 hours. The NHFs were then treated with 5 μM GC4419 for 24 hours followed by treatment with 10 pmol/cell ascorbate for 1 hour.
Normal human fibroblasts (NHFs) were plated and grown in culture (low FBS media) for 48 hours. The NHFs were then treated with 5 μM GC4419 for 24 hours followed by treatment with 10 pmol/cell ascorbate for 1 hour.

[2] = test system: oral mucositis in head-and-neck cancer patients; conditions: head-and-neck cancer patients undergoing chemoradiation therapy; cited from earlier work
[3] = test system: Non-small cell lung cancer cells (H1299); experiment: clonogenic cell survival assay, H1299; format: cell-based
Method: (§1) FIG. 1 is a plot showing the surviving fraction of H1299 cells for increasing amounts of ascorbate, as determined by a clonogenic cell survival assay used to determine the effects of the compound alone and in combination with a pentaaza macrocyclic ring complex (GC4419). Non-small cell lung cancer cells (H1299) were exponentially grown in culture for 48 hours. The cells were then treated with 5-20 μM GC4419 for 24 hours and ascorbate (Asc) for one hour, followed immediately by clonogenic assay. The cells were trypsinized, counted, replated at varying lower densities and incubated. Plates were stained and counted for clonogenic survival assays.
as §1, with “FIG. 10” for “FIG. 1”, “with either the” for “with a”, “complex (GC4419) or the pentaaza macrocyclic ring complex (GC4401).” for “complex (GC4419).”, “with ascorbate (Asc) at the concentrations shown for one hour and either 10” for “with 5-20”, “GC4419 or 10 μM GC4401” for “GC4419”, “24 hours. After 24 hours, the” for “24 hours and ascorbate (Asc) for one hour, followed immediately by clonogenic assay. The”
FIG. 11 is a graph showing the surviving fraction of H1299 cells treated with ascorbate and combinations including ascorbate and/or auranofin. […] The cells were then trypsinized, counted, replated at varying lower densities and incubated. Plates were stained and counted for clonogenic survival assays.
(§2) The effect of ascorbate was tested in a clonogenic cell survival assay to determine the effects of the compound alone and in combination with a pentaaza macrocyclic ring complex (GC4419). […] The cells were trypsinized, counted, replated at varying lower densities and incubated. Plates were stained and counted for clonogenic survival assays.
as §2, with “with the” for “with a”, “complex (GC4419) and the pentaaza macrocyclic ring complex (GC4401).” for “complex (GC4419).”
The effects of ascorbate in combination with a pentaaza macrocyclic ring complex (GC4419) was tested in a clonogenic cell survival assay to determine the effects of the combination alone and when paired with the thioredoxin reductase inhibitor auranofin. […] The cells were then trypsinized, counted, replated at varying lower densities and incubated. […]

## [Cl][Mn][Cl].c1cc2nc(c1)CN[C@H]1CCCC[C@@H]1NCCN[C@H]1CCCC[C@@H]1NC2 [GC4419]
[1]
  cytotoxicity to normal cells: does not increase cytotoxicity of ascorbate
[2]
  oral mucositis: reduce oral mucositis
[3]; 1 μM auranofin 24 h + 10 μM GC4419 24 h + 10 pmol/cell ascorbate 1 h, compared to control, monotherapies and pairwise combinations, FIG. 11
  cell killing (clonogenic survival): also resulted in significant enhancements in cell killing
[3]; 10 μM GC4419 24 h + 10 pmol/cell ascorbate 1 h, compared to control and monotherapies, FIG. 11
  cell killing (clonogenic survival): significant enhancements in cell killing
[3]; ascorbate 1 h in combination with 5 μM or 20 μM GC4419 24 h, compared to ascorbate or GC4419 monotherapies, FIG. 1
  cell killing (clonogenic survival): significant enhancements in cell killing
[3]; ascorbate 1 h in combination with 10 μM complex 24 h, compared to control, FIG. 10
  cell killing (clonogenic survival): significant enhancements in cell killing

Source: patent US11219614B2, “Combination cancer therapy with pentaaza macrocyclic ring complex and ascorbate compound” (Galera Labs, LLC, priority 2016, dated 2022)
